According to patent publication US6319952A, “Compositions and methods for reversibly increasing permeability of biomembranes” (D-Pharm Ltd., priority 1997, dated 2001):

Key:
[1] = test system: rat brain; assay: Water concentration in the rat brain after intra-arterial administration (cerebral edema); type: in vivo; conditions: 20 μg/ml, 24 h
Experimental: The rats were treated by intraarterial infusion of M 3/14 20 μg/ml or phosphate buffered saline as control. After 24 hours the rats were decapitated, the brain was removed and dried at 110° C. until constant weight was achieved (normally three days). The percent water was calculated by the following equation:
% water=(wet sample weight-dry sample weight)×100/(wet sample weight)
This procedure is according to Karpiak and Mahadik (1984, J. Neurosci. Res. 12, 485-492).

[2] = test system: bovine brain capillary endothelial cells in co-culture with astrocytes; assay: Transcellular permeability (albumin-FITC clearance), in vitro coculture model of the BBB; type: cell-based; conditions: 0.24 mg/ml
Experimental: 1 hr incubation with the test material and five different concentrations: 0.04; 0.08; 0.16; 0.24; 0.32 mg/ml corresponding to 0.125; 0.25; 0.5; 0.75; 1×10^-3 M, were chosen for this experiment.
Stock solution of DP-BFA was added directly to the coculture medium (upper compartment) in order to obtain a dilution of 1:40.
Permeability studies was carried out on the monolayer of endothelial cells using a transcellular tracer: albumin-FITC (fluorescein isothiocyanate), MW=66500. There is no albumin receptor on endothelial cells. Albumin crossed the monolayer by a non-specific transport.
To obtain a concentration-dependent transport parameter, the clearance principle was used like sucrose or inulin (see paragraph 2.2.).
Albumin-FITC was used on endothelial cells at the concentration of 100 μg/ml in Ringer-Hepes 0.4% albumin.
The fluorescence of each sample was determined at λexcitation of 495 and λemission of 525 using a fluorescence spectrophotometer F-2000 (Hitachi).
In that case, the results are presented as clearance (μl) in function of time (min) and clearance at 180 minutes for each condition.

[3] = test system: bovine brain capillary endothelial cells in co-culture with astrocytes; assay: Reversibility kinetic of DP-BFA effect on the paracellular permeability of the BBB in vitro; type: cell-based
Experimental: Endothelial cells are cocultured 12 days, and on the twelfth day DP-BFA was added to the cultures for one hour. The cultures were then washed to remove the test material and cultured for a further period of 3, 6 or 18 hours without DP-BFA.
Permeability studies were carried out on the monolayer of endothelial cells, using two paracellular tracers: inulin-^3 H and sucrose-^14C.

[4] = test system: mice; assay: Acute intravenous toxicity test in mice; type: in vivo; conditions: i.v.
Experimental: (§1) An acute intravenous toxicity test was performed to study the toxicity of the branched fatty acids in mice. The study included mortality and behavioral observations during three days. The rate of mortality is represented in the Table 5. M 3/14 caused mortality at a dose of 175 mg/kg; M3/12 at a dose of 75 mg/kg and M 3/10 at a dose of 100 mg/kg. Death was observed ten minutes after i.v. injection. In sub-lethal doses no significant behavior changes were observed.

[5] = Acute intravenous toxicity test in mice; type: in vivo; conditions: mouse, in vivo; intravenous administration to mice
Experimental: as §1

[6] = 0.16 mg/ml 1 hr, then 3 hrs fresh medium
[7] = 0.16 mg/ml 1 hr, then 6 hrs fresh medium
[8] = 0.16 mg/ml 1 hr, then 18 hrs fresh medium

SMILES: CCCCCCCCCCCCCCC(CCC)C(=O)O (stereo not drawn) [M 3/14, 2-propylhexadecanoic acid]
- cerebral edema [1]: no cerebral edema effect
- water content of brain, treated vs non treated rats [1]: no significant difference
- Brain weight ([1]; intra-arterial): 1.494 g
- Brain weight after drying ([1]; intra-arterial): 0.311 g
- Water ([1]; intra-arterial): 79.19%
- non-specific transcellular transport ([2]; 1 hr incubation): increase of non-specific transcellular transport
- activation at 240 µg/mL ([2]; Bos taurus, 1 hour incubation, read-out: increase in permeability of the monolayer for albumin (clearance at 180 minutes)): 268%
- decrease in paracellular permeability for inulin (clearance at 45 minutes) [3, 6]: 58%
- decrease in paracellular permeability for sucrose (clearance at 45 minutes) [3, 6]: 56%
- decrease in paracellular permeability for inulin (clearance at 45 minutes) [3, 7]: 58%
- decrease in paracellular permeability for sucrose (clearance at 45 minutes) [3, 7]: 57%
- decrease in paracellular permeability for inulin (clearance at 45 minutes) [3, 8]: 76%
- decrease in paracellular permeability for sucrose (clearance at 45 minutes) [3, 8]: 72%
- reversibility of DP-BFA effect ([3]; 0.16 mg/ml 1 hr, after 3, 6 and 18 hrs): incomplete reversibility
- paracellular transport after removal ([3]; after 3 hours, preliminary kinetic study): a decrease in the paracellular transport could be observed
- Mortality ([4]; 50 mg/kg, 5 mg/ml): 0/3
- Mortality ([4]; 100 mg/kg, 5 mg/ml): 0/3
- Mortality ([4]; 150 mg/kg, 10 mg/ml): 0/3
- Mortality ([4]; 175 mg/kg, 10 mg/ml): 3/3
- dose causing mortality ([4]; mice, three days): 175 mg/kg
- LD50 at 72 h [5]: 150 to 175 mg/kg
